Data: the supplement of paper PMC10307832

Assays:
Test in all cases: relative viability (nuclei count vs DMSO), 5 days (fraction); higher = more cells survive
Tozasertib + Linsitinib = compound: Cc1cc(Nc2cc(N3CCN(C)CC3)nc(Sc3ccc(NC(=O)C4CC4)cc3)n2)n[nH]1 [Tozasertib] + C[C@]1(O)C[C@@H](c2nc(-c3ccc4ccc(-c5ccccc5)nc4c3)c3c(N)nccn32)C1 [Linsitinib] (partner 1 µM)
In short: (§1)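 For relative viability, nuclei counts in treated wells were divided by those in vehicle wells. Lung cancer cell lines had been pin-tool dosed in 1536-well plates the day after seeding and cultured for 5 days, then fixed and stained in one step (final 0.05% Triton X-100, 1% formaldehyde, 1 ug/ml Hoechst) and imaged at 4×. Doses were one drug alone or a fixed anchor-drug dose plus five library-drug doses (not always all listed) in √10 steps, and values are duplicate-plate medians.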

Tozasertib + Bortezomib = compound: Cc1cc(Nc2cc(N3CCN(C)CC3)nc(Sc3ccc(NC(=O)C4CC4)cc3)n2)n[nH]1 [Tozasertib] + CC(C)C[C@H](NC(=O)[C@H](Cc1ccccc1)NC(=O)c1cnccn1)B(O)O [Bortezomib] (partner 0.002 µM)
In short: as §1

Tozasertib + Pictilisib = compound: Cc1cc(Nc2cc(N3CCN(C)CC3)nc(Sc3ccc(NC(=O)C4CC4)cc3)n2)n[nH]1 [Tozasertib] + CS(=O)(=O)N1CCN(Cc2cc3nc(-c4cccc5[nH]ncc45)nc(N4CCOCC4)c3s2)CC1 [Pictilisib] (partner 1 µM)
In short: as §1

Tozasertib + Phenformin = compound: Cc1cc(Nc2cc(N3CCN(C)CC3)nc(Sc3ccc(NC(=O)C4CC4)cc3)n2)n[nH]1 [Tozasertib] + N=C(N)NC(=N)NCCc1ccccc1 [Phenformin] (partner 250 µM)
In short: as §1

Tozasertib + Navitoclax = compound: Cc1cc(Nc2cc(N3CCN(C)CC3)nc(Sc3ccc(NC(=O)C4CC4)cc3)n2)n[nH]1 [Tozasertib] + CC1(C)CCC(c2ccc(Cl)cc2)=C(CN2CCN(c3ccc(C(=O)NS(=O)(=O)c4ccc(N[C@H](CCN5CCOCC5)CSc5ccccc5)c(S(=O)(=O)C(F)(F)F)c4)cc3)CC2)C1 [Navitoclax] (partner 0.5 µM)
In short: as §1

Row | Cell Line | relative viability (Tozasertib + Linsitinib; first compound 0.004 µM) | relative viability (Tozasertib + Linsitinib; first compound 0.01265 µM) | relative viability (Tozasertib + Linsitinib; first compound 0.04 µM) | relative viability (Tozasertib + Linsitinib; first compound 0.1265 µM) | relative viability (Tozasertib + Bortezomib; first compound 0.004 µM) | relative viability (Tozasertib + Bortezomib; first compound 0.01265 µM) | relative viability (Tozasertib + Bortezomib; first compound 0.04 µM) | relative viability (Tozasertib + Pictilisib; first compound 0.004 µM) | relative viability (Tozasertib + Pictilisib; first compound 0.01265 µM) | relative viability (Tozasertib + Pictilisib; first compound 0.04 µM) | relative viability (Tozasertib + Pictilisib; first compound 0.1265 µM) | relative viability (Tozasertib + Phenformin; first compound 0.004 µM) | relative viability (Tozasertib + Phenformin; first compound 0.01265 µM) | relative viability (Tozasertib + Phenformin; first compound 0.04 µM) | relative viability (Tozasertib + Phenformin; first compound 0.1265 µM) | relative viability (Tozasertib + Navitoclax; first compound 0.004 µM) | relative viability (Tozasertib + Navitoclax; first compound 0.01265 µM) | relative viability (Tozasertib + Navitoclax; first compound 0.04 µM) | relative viability (Tozasertib + Navitoclax; first compound 0.1265 µM) | relative viability (Tozasertib + Bortezomib; first compound 0.1265 µM)
1 | 201T | 1.02 | 0.955 | 1.08 | 1.04 | 1.1 | 1.06 | 1.07 | 0.716 | 0.581 | 0.709 | 0.537 | 0.496 | 0.432 | 0.448 | 0.415 | 1.16 | 1.22 | 1.23 | 1.16 | 
2 | A549 | 0.461 | 0.511 | 0.71 | 0.33 |  |  |  | 0.529 | 0.463 | 0.517 | 0.0954 | 0.117 | 0.161 | 0.169 | 0.0581 | 1.26 | 1.29 | 1.14 | 0.179 | 
3 | A-427 | 1.16 | 0.996 | 1.12 | 0.826 | 0.983 | 0.942 | 1.02 | 0.676 | 0.585 | 0.814 | 0.168 | 0.332 | 0.31 | 0.328 | 0.169 |  | 0.979 | 0.995 | 0.755 | 0.812
4 | ABC-1 | 0.831 |  | 0.554 | 0.767 | 0.278 | 0.282 | 0.3 | 0.782 |  | 0.625 | 0.291 | 0.218 | 0.202 | 0.261 | 0.172 |  |  |  |  | 0.231
5 | BEN | 1.08 | 0.948 | 0.927 | 0.85 | 1.01 | 0.79 | 0.925 | 0.56 | 0.575 | 0.66 | 0.456 | 0.277 | 0.253 | 0.296 | 0.252 | 0.0692 | 0.0723 | 0.0504 | 0.0587 | 0.571
6 | ChaGo-K-1 |  |  |  |  | 1.17 | 0.953 | 1.14 | 0.849 | 0.676 | 0.771 | 0.256 | 0.528 | 0.456 | 0.562 | 0.289 | 1.13 | 0.946 | 1.2 | 0.3 | 0.31
7 | LCLC-103H | 1.07 | 1.03 | 0.987 | 1.34 | 1.04 | 1.14 | 1.2 | 0.694 | 0.568 | 0.634 | 0.498 | 0.373 | 0.343 | 0.323 | 0.359 |  |  |  |  | 0.974
8 | LK-2 | 0.639 | 0.541 | 0.442 | 0.272 |  |  |  | 0.715 |  | 0.61 | 0.359 | 0.37 | 0.493 | 0.412 | 0.212 | 0.878 | 0.736 | 0.981 | 0.392 | 
9 | NCI-H358 | 0.787 | 0.69 | 0.651 | 0.194 |  |  |  | 0.353 | 0.263 | 0.366 | 0.178 | 0.353 | 0.295 | 0.354 | 0.0988 |  |  |  |  | 
10 | NCI-H650 | 0.967 | 0.771 | 0.754 | 0.513 | 0.663 | 0.68 | 0.976 | 0.917 | 0.813 | 0.823 | 0.756 | 0.497 | 0.445 | 0.444 | 0.379 |  |  |  |  | 0.523
11 | NCI-H661 | 0.61 | 0.564 | 0.497 | 0.402 | 0.922 | 0.741 | 1.03 | 0.461 | 0.394 | 0.404 | 0.349 | 0.287 | 0.313 | 0.319 | 0.253 |  |  |  |  | 0.499
12 | NCI-H1395 | 1.57 | 0.974 | 1.16 | 0.75 |  |  |  | 0.657 | 0.528 | 0.604 | 0.469 | 0.46 | 0.429 | 0.47 | 0.359 | 1.28 | 1.13 | 1.06 | 0.825 | 
13 | NCI-H1563 | 1.26 | 1.2 | 1.14 | 1.12 | 0.873 | 0.817 | 0.956 | 0.61 | 0.641 | 0.684 | 0.53 | 0.704 | 0.668 | 0.721 | 0.573 |  |  |  |  | 0.861
14 | NCI-H1650 |  |  |  |  | 0.202 | 0.207 | 0.24 | 0.589 | 0.557 | 0.639 | 0.204 | 0.47 | 0.38 | 0.595 | 0.199 |  | 0.981 | 1.24 | 0.936 | 0.2
15 | NCI-H1793 | 0.909 | 0.764 | 0.853 | 0.625 |  |  |  | 0.396 | 0.357 | 0.351 | 0.261 | 0.33 | 0.427 | 0.414 | 0.458 | 0.492 | 0.501 | 0.453 | 0.33 | 
16 | NCI-H1944 | 1.12 | 1.25 | 1.18 | 0.798 |  |  |  | 0.36 | 0.339 | 0.331 | 0.275 | 0.203 | 0.211 | 0.211 | 0.167 | 0.96 | 1.05 | 1.02 | 0.695 | 
17 | NCI-H2170 |  |  |  |  |  |  |  | 0.3 | 0.327 | 0.295 | 0.276 | 0.33 | 0.364 | 0.436 | 0.366 | 0.556 | 0.565 | 0.583 | 0.557 | 
18 | NCI-H2342 |  |  |  |  |  |  |  |  |  |  |  | 0.635 | 0.607 | 0.57 | 0.465 |  |  |  |  | 
19 | SK-MES-1 | 1.1 | 1.02 | 1.14 | 1.1 |  |  |  | 0.401 | 0.302 | 0.35 | 0.326 | 0.691 | 0.642 | 0.71 | 0.696 | 1.17 | 1.23 | 1.4 | 1.02 | 
